Laboratory results taken from PubChem BioAssay (NCI).
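Five compound concentrations were applied to cells in 96-well plates for 48 hours; endpoints were derived by simple linear interpolation of the resulting dose-response curve. At the TGI there is no net growth.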

Experiments:
Test in all cases: growth of human tumour cells (NCI), 48 h
[1] = tested on: 786-0 renal
[2] = tested on: A498 renal
[3] = tested on: A549 NSCLC
[4] = tested on: ACHN renal
[5] = tested on: BT-549 breast
[6] = tested on: CAKI-1 renal
[7] = tested on: CCRF-CEM leukemia
[8] = tested on: COLO 205 colon
[9] = tested on: DU-145 prostate
[10] = tested on: EKVX NSCLC
[11] = tested on: HCC-2998 colon
[12] = tested on: HCT-116 colon
[13] = tested on: HCT-15 colon
[14] = tested on: HL-60(TB) leukemia
[15] = tested on: HOP-62 NSCLC
[16] = tested on: HOP-92 NSCLC
[17] = tested on: HS 578T breast
[18] = tested on: HT29 colon
[19] = tested on: IGROV1 ovarian
[20] = tested on: KM12 colon
[21] = tested on: LOX IMVI melanoma
[22] = tested on: M14 melanoma
[23] = tested on: MALME-3M melanoma
[24] = tested on: MCF7 breast
[25] = tested on: MDA-MB-231 breast
[26] = tested on: MDA-MB-435
[27] = tested on: MDA-N
[28] = tested on: MOLT-4 leukemia
[29] = tested on: NCI-H226 lung
[30] = tested on: NCI-H23 lung
[31] = tested on: NCI-H460 lung
[32] = tested on: NCI-H522 lung
[33] = tested on: NCI/ADR-RES ovarian
[34] = tested on: OVCAR-3 ovarian
[35] = tested on: OVCAR-4 ovarian
[36] = tested on: OVCAR-5 ovarian
[37] = tested on: OVCAR-8 ovarian
[38] = tested on: PC-3 prostate
[39] = tested on: RPMI-8226 leukemia
[40] = tested on: RXF 393 renal
[41] = tested on: SF-268 CNS
[42] = tested on: SF-295 CNS
[43] = tested on: SF-539 CNS
[44] = tested on: SK-MEL-2 melanoma
[45] = tested on: SK-MEL-28 melanoma
[46] = tested on: SK-MEL-5 melanoma
[47] = tested on: SK-OV-3 ovarian
[48] = tested on: SN12C renal
[49] = tested on: SNB-19 CNS
[50] = tested on: SNB-75 CNS
[51] = tested on: SR leukemia
[52] = tested on: SW-620 colon
[53] = tested on: T-47D breast
[54] = tested on: TK-10 renal
[55] = tested on: U251 CNS
[56] = tested on: UACC-257 melanoma
[57] = tested on: UACC-62 melanoma
[58] = tested on: UO-31 renal
[59] = tested on: K-562 leukemia

## Cc1ccc(/C=N/Nc2ccccn2)s1
[1]
  TGI: > 100 µM
[2]
  TGI: > 100 µM
[3]
  TGI: > 100 µM
[4]
  TGI: > 100 µM
[5]
  TGI: > 100 µM
[6]
  TGI: > 100 µM
[7]
  TGI: > 100 µM
[8]
  TGI: > 100 µM
[9]
  TGI: > 100 µM
[10]
  TGI: > 100 µM
[11]
  TGI: > 100 µM
[12]
  TGI: > 100 µM
[13]
  TGI: > 100 µM
[14]
  TGI: > 100 µM
[15]
  TGI: > 100 µM
[16]
  TGI: > 100 µM
[17]
  TGI: > 100 µM
[18]
  TGI: > 100 µM
[19]
  TGI: > 100 µM
[20]
  TGI: > 100 µM
[21]
  TGI: > 100 µM
[22]
  TGI: > 100 µM
[23]
  TGI: > 100 µM
[24]
  TGI: > 100 µM
[25]
  TGI: > 100 µM
[26]
  TGI: > 100 µM
[27]
  TGI: > 100 µM
[28]
  TGI: > 100 µM
[29]
  TGI: > 100 µM
[30]
  TGI: > 100 µM
[31]
  TGI: > 100 µM
[32]
  TGI: > 100 µM
[33]
  TGI: > 100 µM
[34]
  TGI: > 100 µM
[35]
  TGI: > 100 µM
[36]
  TGI: > 100 µM
[37]
  TGI: > 100 µM
[38]
  TGI: > 100 µM
[39]
  TGI: > 100 µM
[40]
  TGI: > 100 µM
[41]
  TGI: > 100 µM
[42]
  TGI: > 100 µM
[43]
  TGI: > 100 µM
[44]
  TGI: > 100 µM
[45]
  TGI: > 100 µM
[46]
  TGI: > 100 µM
[47]
  TGI: > 100 µM
[48]
  TGI: > 100 µM
[49]
  TGI: > 100 µM
[50]
  TGI: > 100 µM
[51]
  TGI: > 100 µM
[52]
  TGI: > 100 µM
[53]
  TGI: > 100 µM
[54]
  TGI: > 31.6 µM
[55]
  TGI: > 100 µM
[56]
  TGI: > 100 µM
[57]
  TGI: > 100 µM
[58]
  TGI: > 100 µM

## O=C(/C=C/c1cccc(Br)c1)c1ccc(Cl)cc1
[1]
  TGI: 28.3 µM
[2]
  TGI: 26.5 µM
[3]
  TGI: 33.5 µM
[4]
  TGI: 30.4 µM
[5]
  TGI: 31.9 µM
[6]
  TGI: 40.1 µM
[7]
  TGI: 24.9 µM
[8]
  TGI: 30.9 µM
[9]
  TGI: 30.3 µM
[10]
  TGI: 29.7 µM
[11]
  TGI: 33.7 µM
[12]
  TGI: 18 µM
[13]
  TGI: 31.1 µM
[14]
  TGI: 44.5 µM
[15]
  TGI: 35.9 µM
[16]
  TGI: 31.7 µM
[17]
  TGI: 57.3 µM
[18]
  TGI: 24.5 µM
[19]
  TGI: 35.8 µM
[59]
  TGI: 45.7 µM
[20]
  TGI: 32.5 µM
[21]
  TGI: 28 µM
[22]
  TGI: 28.1 µM
[23]
  TGI: 29 µM
[24]
  TGI: 16.3 µM
[25]
  TGI: 35.2 µM
[26]
  TGI: 25.5 µM
[27]
  TGI: 20 µM
[28]
  TGI: 77.8 µM
[29]
  TGI: 33.7 µM
[30]
  TGI: 32.7 µM
[31]
  TGI: 37.3 µM
[32]
  TGI: 30.5 µM
[33]
  TGI: 59.2 µM
[34]
  TGI: 32.3 µM
[35]
  TGI: 32.1 µM
[36]
  TGI: 30.6 µM
[37]
  TGI: 32.1 µM
[38]
  TGI: 28.2 µM
[39]
  TGI: 6.31 µM
[40]
  TGI: 35.5 µM
[41]
  TGI: 34.1 µM
[42]
  TGI: 32.6 µM
[43]
  TGI: 30.4 µM
[44]
  TGI: 29.3 µM
[45]
  TGI: 29.1 µM
[46]
  TGI: 27.2 µM
[47]
  TGI: 43.6 µM
[48]
  TGI: 32.4 µM
[49]
  TGI: 30.1 µM
[50]
  TGI: 28.1 µM
[51]
  TGI: 20.4 µM
[52]
  TGI: 13.3 µM
[53]
  TGI: 32.1 µM
[54]
  TGI: 27.2 µM
[55]
  TGI: 18.6 µM
[56]
  TGI: 32.1 µM
[57]
  TGI: 29 µM
[58]
  TGI: 29.3 µM
